Results on five molecules are retold here after patent US10238623B2, “C14-hydroxyl esterified amino acid derivative of triptolide, and preparation method and use thereof” (HANGZHOU WEBEN PHARMACEUTICALS INC, priority 2015, dated 2019).

In one data set the test system is KG-1. Put plainly: MTT growth inhibition, KG-1 cells, 72 h. It is filed as cell-based. The conditions noted are these: Homo sapiens, KG-1, MTT. On the procedure: (§1) 5000 well-grown leukemia cells were taken and seeded into wells of a 96-well cell culture plate. The medium was 1640 cell medium containing 10% fetal bovine serum. 14-D-Valine-TPL with different concentrations was added, and after being uniformly mixed, the plate was placed in a carbon dioxide (5% CO2) cell incubator, and incubated at 37° C. for 72 hours. The concentration of live cells was then determined using the MTT assay. In this experiment, the cell viability in the control group (without the compound treatment) was set to be 100%, and the cell viability (%) after the action of the compound and the half maximal growth inhibitory concentration of leukemia cells at 72 hours (IC50 value at 72 hours) were calculated.

Another data set concerns THP-1. Briefly: MTT growth inhibition, THP-1 cells, 72 h. Conditions: Homo sapiens, THP-1, MTT. It is filed as cell-based. On the procedure: as §1
Data set [1] concerns human chronic myelogenous leukemia K562/ADR cells. Briefly: K562/ADR subcutaneous xenograft in NOD/SCID mice. It is filed as in vivo. Conditions: for growth of K562/ADR cells in mice in vivo (in words): K562/ADR xenograft, intragastric 2 times a day, dose-dependent effect; for Tumor volume: K562/ADR. On the procedure:
(§2) 7-week old female NOD/SCID mice were taken and inoculated subcutaneously with 1×10^7 cells (0.2 ml) per mouse in axilla, with human K562/ADR cells on the left. When tumors grew to a tumor size of around 50-100 mm^3, the mice were randomized into groups with 3 mice each. An equivalent amount of PBS was used for the control group, and the TPL-DDV group was divided into two groups with 0.23 mg/kg body weight and 0.46 mg/kg body weight: intragastric administration, 2 times a day (one at 8 a.m. and one at 4 p.m.) for consecutive 14 days of treatment. An observation was made for total 30 days, during which the conditions of the mice such as tumor size, weight, activity, diet, and the like were measured. At the end of the experiment, the mice were sacrificed, tumor tissues were taken and the tumors were weighed, and major organs and tissues of the mice such as liver, spleen, heart, lung, large intestine, small intestine, and the like were examined.
as §2, with “TPL-LV” for “TPL-DDV”, “0.2” for “0.23”, “0.4” for “0.46”

Data set [2] is described as follows: Body weight and organ examination of tumour-bearing mice. It is filed as in vivo, NOD/SCID mice. Conditions: 14 days, individual mice. On the procedure:
(§3) 7-week old female NOD/SCID mice were taken and inoculated subcutaneously with 1×10^7 cells (0.2 ml) per mouse in axilla, with human acute myelogenous leukemia KG-1a cells on the left and human acute monocytic leukemia THP-1 cells on the right. When tumors grew to a tumor size of around 0.5 cm, the mice were randomized into groups with 3 mice each. An equivalent amount of PBS was used for the control group, and the 14-D-Valine-TPL group was divided into two groups with 0.2 mg/kg body weight and 0.4 mg/kg body weight: intragastric administration 2 times a day (one at 8 a.m. and one at 4 p.m.) for consecutive 14 days of treatment. An observation was made for total 30 days, during which the conditions of the mice such as tumor size, weight, activity, diet, and the like were measured. At the end of the experiment, the mice were sacrificed, tumor tissues were taken and the tumors were weighed, and major organs and tissues of the mice such as liver, spleen, heart, lung, large intestine, small intestine, and the like were examined.
as §2, with “acute myelogenous leukemia KG-1a” for “K562/ADR”, “TPL-LLV” for “TPL-DDV”
as §2, with “acute myelogenous leukemia KG-1a” for “K562/ADR”, “TPL-DLV” for “TPL-DDV”
as §2, with “acute myelogenous leukemia KG-1a” for “K562/ADR”, “TPL-DLV” for “TPL-DDV”, “0.32” for “0.23”, “0.64” for “0.46”, “examined. […]” for “examined.”

For data set [3], the system named is human acute myelogenous leukemia KG-1a cells. Put plainly: KG-1a subcutaneous xenograft in NOD/SCID mice. In kind it is in vivo. Conditions: for growth of KG-1a in mice in vivo (in words): KG-1a xenograft, intragastric 2 times a day, dose-dependent effect; for Tumor volume: KG-1a. On the procedure:
as §3
as §2, with “acute myelogenous leukemia KG-1a” for “K562/ADR”, “TPL-LLV” for “TPL-DDV”
as §2, with “acute myelogenous leukemia KG-1a” for “K562/ADR”, “TPL-DLV” for “TPL-DDV”
as §2, with “acute myelogenous leukemia KG-1a” for “K562/ADR”, “TPL-DLV” for “TPL-DDV”, “0.32” for “0.23”, “0.64” for “0.46”

The test system of the next data set is pancreatic cancer. Conditions: cited from earlier work.

The structures appear in SMILES notation. pIC50: −log10 of the molar value. Values joined by “and” are separate entries in the source; they are usually repeats but may differ in a detail not shown here. Equal values may be shown once.

Broadly, the pIC50 is −log10 of the IC50, conventionally taken in molar units. A high value points to a low IC50. With `CC(C)[C@H](N)C(=O)O[C@@H]1[C@@]2(C(C)C)O[C@H]2[C@@H]2O[C@]23[C@]12O[C@H]2C[C@H]1C2=C(CC[C@@]13C)C(=O)OC2` [14-L-Valine-TPL, 14-Levo-Valine-Triptolide], the negative-log IC50 (pIC50) in the data set on KG-1 was 8.05; in the data set on THP-1, 8.30. For the same molecule, the “growth of K562/ADR cells in mice in vivo (in words)” value in data set [1] (14 days) is given as “significantly inhibit the growth”. Moreover, the Tumor volume was 73.63 mm^3 and 0 mm^3 and 159.87 mm^3 in data set [1] (trifluoroacetate 0.2 mg/kg intragastric 2 times a day, 14 days, individual mice, listed as LV); 30.71 mm^3 and 96.79 mm^3 and 0 mm^3 in data set [1] (trifluoroacetate 0.4 mg/kg intragastric 2 times a day, 14 days, individual mice, listed as LV). In addition, the Body weight is 18 g and 22.2 g and 22 g in data set [2] (K562/ADR-bearing mice, 0.2 mg/kg intragastric 2 times a day, listed as LV, 0.2 mg/kg); 21.2 g and 20.8 g and 21.1 g in data set [2] (K562/ADR-bearing mice, 0.4 mg/kg intragastric 2 times a day, listed as LV, 0.4 mg/kg).

In the case of `CC(C)[C@H](N)C(=O)N[C@@H](C(=O)O[C@@H]1[C@@]2(C(C)C)O[C@H]2[C@@H]2O[C@]23[C@]12O[C@H]2C[C@H]1C2=C(CC[C@@]13C)C(=O)OC2)C(C)C` [14-L-Valine-D-Valine-TPL, 14-Levo-Valine-Dextro-Valine-Triptolide], the “growth of KG-1a in mice in vivo (in words)” value in data set [3] (14 days) is recorded as “significantly inhibit the growth”. The Tumor volume was 562.66 mm^3 and 505.81 mm^3 and 1038.41 mm^3 in data set [3] (trifluoroacetate 0.23 mg/kg intragastric 2 times a day, 14 days, individual mice, listed as DLV); 90.96 mm^3 and 265.32 mm^3 and 50.35 mm^3 in data set [3] (trifluoroacetate 0.46 mg/kg intragastric 2 times a day, 14 days, individual mice, listed as DLV). For the same molecule, the Body weight is 19.5 g and 17.8 g and 19.6 g in data set [2] (KG-1a-bearing mice, 0.23 mg/kg intragastric 2 times a day, listed as DLV, 0.23 mg/kg); 19.6 g and 18.5 g and 18.8 g in data set [2] (KG-1a-bearing mice, 0.46 mg/kg intragastric 2 times a day, listed as DLV, 0.46 mg/kg).

Take `CC(C)[C@]12O[C@H]1[C@@H]1O[C@]13[C@]1(O[C@H]1C[C@H]1C4=C(CC[C@@]13C)C(=O)OC4)[C@@H]2OC(=O)[C@H](Cc1ccc(O)cc1)NC(=O)[C@@H](N)Cc1ccccc1` [14-L-Phenylalanyl-L-tyrosine-TPL, 14-Levo-Phenylalanyl-Levo-tyrosine-Triptolide]: the “growth of KG-1a in mice in vivo (in words)” value in data set [3] (14 days) was “significantly inhibit the growth”. Also, the Tumor volume in data set [3] (0.64 mg/kg, Overall) is 0 mm^3; in data set [3] (trifluoroacetate 0.32 mg/kg intragastric 2 times a day, 14 days, individual mice, listed as LPT), 168.07 mm^3 and 93.12 mm^3 and 131.17 mm^3; in data set [3] (trifluoroacetate 0.64 mg/kg intragastric 2 times a day, 14 days, individual mice), 0 mm^3. Besides, the Body weight is 20 g and 20.4 g and 21.4 g in data set [2] (KG-1a-bearing mice, 0.32 mg/kg intragastric 2 times a day, listed as LPT, 0.32 mg/kg); 19.4 g and 16.1 g and 17.4 g in data set [2] (KG-1a-bearing mice, 0.64 mg/kg intragastric 2 times a day, listed as LPT, 0.64 mg/kg).

As to `CC(C)[C@@H](N)C(=O)N[C@@H](C(=O)O[C@@H]1[C@@]2(C(C)C)O[C@H]2[C@@H]2O[C@]23[C@]12O[C@H]2C[C@H]1C2=C(CC[C@@]13C)C(=O)OC2)C(C)C` [14-D-Valine-D-Valine-TPL, 14-Dextro-Valine-Dextro-Valine-Triptolide], the “growth of K562/ADR cells in mice in vivo (in words)” value in data set [1] (14 days) is given as “significantly inhibit the growth”. The Tumor volume in data set [1] (0.23 mg/kg, Overall) turned out to be 0 mm^3; in data set [1] (0.46 mg/kg, Overall), 0 mm^3; in data set [1] (trifluoroacetate 0.23 mg/kg intragastric 2 times a day, 14 days, individual mice), 0 mm^3; in data set [1] (trifluoroacetate 0.46 mg/kg intragastric 2 times a day, 14 days, individual mice), 0 mm^3. In addition, the Body weight was 19.7 g and 21.2 g and 19.1 g in data set [2] (K562/ADR-bearing mice, 0.23 mg/kg intragastric 2 times a day, listed as DDV, 0.23 mg/kg); 20.5 g and 23.2 g and 19.3 g in data set [2] (K562/ADR-bearing mice, 0.46 mg/kg intragastric 2 times a day, listed as DDV, 0.46 mg/kg).

For the molecule `CC(C)[C@]12O[C@H]1[C@@H]1O[C@]13[C@]1(O[C@H]1C[C@H]1C4=C(CC[C@@]13C)C(=O)OC4)[C@@H]2OCOP(=O)(O)O` [Minnelide], the toxic effect entry in the data set with pancreatic cancer (at a dosage effective to tumor regression) was “no significant toxic effect”. Also, the survival of mice result with pancreatic cancer (nude mouse model of pancreatic cancer) is “prolonged the survival of mice”.
